Reference: PMC9127750, “Structure-based design of CDC42 effector interaction inhibitors for the treatment of cancer” (Cell reports, 2022)
Where “and” joins values, the source holds several entries; their conditions need not be identical. Equal values may be shown once.

Test system: WM3248 melanoma cells, 486 antibodies
Experiment: Reverse phase protein arrays (RPPA)
Format: cell-based, Human
From the text: Pellets were snap frozen in liquid nitrogen and shipped to MD Anderson Cancer Center core RPPA facility for RPPA analysis (Table S5). Three biological replicates for each sample were generated.
Nomenclatures on the RPPA heatmaps: name_of_antibody.species_of_antibody.status_of_antibody. V - antibody validated; C - validation of antibody in progress; Q - antibody nonspecific; E – under evaluation; antibodies raised in M - mouse, G - goat, R - rabbit, or T - rat.

[1] = Norm_20: replicates 1-3 and Average, relative to 0

SMILES: CN(C)c1cccc(Nc2cc(-c3ccccc3)nc(C3CCNCC3)n2)c1 [ARN22089, N1,N1-dimethyl-N3-(6-phenyl-2-(piperidin-4-yl)pyrimidin-4-yl)benzene-1,3-diamine]
- PEA.15.R.V Average (Norm_20, normalized to Norm_0): 1.052
- PEA.15_pS116.R.V Average (Norm_20, normalized to Norm_0): 0.946
- PERK.R.V Average (Norm_20, normalized to Norm_0): 1.025
- PGM1.R.V Average (Norm_20, normalized to Norm_0): 0.977
- PHGDH.R.C Average (Norm_20, normalized to Norm_0): 1.014
- PHLPP.R.V Average (Norm_20, normalized to Norm_0): 1.227
- PI3K.p85.R.C Average (Norm_20, normalized to Norm_0): 0.845
- PI3K.p110.a.R.C Average (Norm_20, normalized to Norm_0): 0.888
- PI3K.p110.b.M.C Average (Norm_20, normalized to Norm_0): 0.953
- PKA.a.R.V Average (Norm_20, normalized to Norm_0): 0.999
- PKC.a.b.II_pT638_T641.R.V Average (Norm_20, normalized to Norm_0): 0.901
- PKC.b.II_pS660.R.V Average (Norm_20, normalized to Norm_0): 1.030
- PKCa.R.V Average (Norm_20, normalized to Norm_0): 1.322
- PKM2.R.C Average (Norm_20, normalized to Norm_0): 1.001
- PLK1.R.C Average (Norm_20, normalized to Norm_0): 0.902
- PMS2.R.V Average (Norm_20, normalized to Norm_0): 0.963
- PR.R.V Average (Norm_20, normalized to Norm_0): 0.888
- PRAS40.M.C Average (Norm_20, normalized to Norm_0): 1.217
- PRAS40_pT246.R.V Average (Norm_20, normalized to Norm_0): 1.170
- PRC1_pT481.R.C Average (Norm_20, normalized to Norm_0): 1.054
- Patched.R.C Average (Norm_20, normalized to Norm_0): 1.056
- Paxillin.R.C Average (Norm_20, normalized to Norm_0): 0.857
- Pdcd4.R.C Average (Norm_20, normalized to Norm_0): 0.984
- Porin.M.V Average (Norm_20, normalized to Norm_0): 1.080
- p21.R.C Average (Norm_20, normalized to Norm_0): 0.757
- p27.Kip1.R.C Average (Norm_20, normalized to Norm_0): 1.199
- p27_pT157.R.C Average (Norm_20, normalized to Norm_0): 1.392
- p27_pT198.R.V Average (Norm_20, normalized to Norm_0): 1.105
- p38.MAPK.R.V Average (Norm_20, normalized to Norm_0): 0.992
- p38.MAPK._pT180_Y182.R.V Average (Norm_20, normalized to Norm_0): 0.965
- p38.a.M.V Average (Norm_20, normalized to Norm_0): 0.909
- p44.42.MAPK.R.V Average (Norm_20, normalized to Norm_0): 1.224
- p53.R.C Average (Norm_20, normalized to Norm_0): 1.197
- p70.S6K1.R.V Average (Norm_20, normalized to Norm_0): 1.144
- p70.S6K_pT389.R.V Average (Norm_20, normalized to Norm_0): 0.981
- p90RSK_pT573.R.C Average (Norm_20, normalized to Norm_0): 0.937
- PREX1.R.V normalized RPPA signal [1]: 1.049 and 0.907 and 1.063 and 1.006
- PTEN.R.V normalized RPPA signal [1]: 1.227 and 1.032 and 1.101
- PTPN12.R.V normalized RPPA signal [1]: 0.953 and 1.002 and 1.471 and 1.142
- PYGB.R.V normalized RPPA signal [1]: 1.322 and 1.252 and 1.214
- PYGM.M.C normalized RPPA signal [1]: 0.919 and 1.127 and 1.743 and 1.263
- Puma.R.C normalized RPPA signal [1]: 1.011 and 1.199
- Pyk2_pY402.R.C normalized RPPA signal [1]: 1.106 and 1.030 and 0.994
- RBM15.R.V normalized RPPA signal [1]: 1.053 (2×) and 1.142 and 1.083
- RIP3.R.C normalized RPPA signal [1]: 1.022 and 0.957 and 0.979 and 0.986
- RIP.R.C normalized RPPA signal [1]: 0.835 and 1.185 and 1.165 and 1.062
- RPA32.R.V normalized RPPA signal [1]: 1.395 and 1.278 and 1.255
- RPA32_pS4_S8.R.C normalized RPPA signal [1]: 2.064 and 2.369 and 1.687 and 2.040
- RRM1.R.C normalized RPPA signal [1]: 0.973 and 0.832 and 0.977 and 0.927
- RRM2.R.C normalized RPPA signal [1]: 0.797 and 0.718 and 1.114 and 0.876
- RSK1.R.V normalized RPPA signal [1]: 1.025 and 1.192 and 1.102
- RSK.R.C normalized RPPA signal [1]: 0.897 and 1.161
- Rab11.R.C normalized RPPA signal [1]: 0.945 and 1.018
- Rab25.R.V normalized RPPA signal [1]: 1.022 and 0.964 and 0.955 and 0.980
- Rad17_pS645.R.V normalized RPPA signal [1]: 0.978 and 0.844 and 0.971
- Rad23A.R.C normalized RPPA signal [1]: 0.902 and 0.794 and 1.765 and 1.154
- Rad50.R.V normalized RPPA signal [1]: 1.096 and 1.085 and 1.310 and 1.164
- Rad51.R.C normalized RPPA signal [1]: 0.693 and 0.792 and 0.842 and 0.776
- Raptor.R.V normalized RPPA signal [1]: 0.796 and 0.917 and 1.035 and 0.916
- Rb.M.Q normalized RPPA signal [1]: 0.868 and 1.016 and 1.009 and 0.964
- Rb_pS807_S811.R.V normalized RPPA signal [1]: 0.751 and 0.680 and 0.842
- Rheb.M.C normalized RPPA signal [1]: 1.435 and 1.017 and 1.212
- Rictor.R.C normalized RPPA signal [1]: 0.973 and 1.010 and 1.009
- Rictor_pT1135.R.V normalized RPPA signal [1]: 0.917 and 1.033 and 0.998
- S6.M.V normalized RPPA signal [1]: 1.331 and 0.833
- S6_pS235_S236.R.V normalized RPPA signal [1]: 0.159 and 0.167 and 0.469 and 0.265
- S6_pS240_S244.R.V normalized RPPA signal [1]: 0.113 and 0.501 and 0.240
- SCD.M.V normalized RPPA signal [1]: 0.924 and 0.950 and 0.971
- SDHA.R.V normalized RPPA signal [1]: 1.123 and 1.101 and 1.057
- SF2.R.V normalized RPPA signal [1]: 1.010 and 0.957
- SFRP1.R.V normalized RPPA signal [1]: 0.979 and 1.009 and 0.863 and 0.950
- SGK1.R.V normalized RPPA signal [1]: 0.759 and 0.622 and 1.145 and 0.842
- SGK3.R.V normalized RPPA signal [1]: 0.855 and 0.956 and 0.913 and 0.908
- SHP2.R.V normalized RPPA signal [1]: 0.966 and 1.028 and 0.923 and 0.972
- SHP.2_pY542.R.C normalized RPPA signal [1]: 1.218 and 1.287 and 1.191
- SIRPαR.V normalized RPPA signal [1]: 1.172 and 0.832 and 0.694 and 0.900
- SLC1A5.R.C normalized RPPA signal [1]: 1.248 and 1.028 and 1.189 and 1.155
- SOD1.M.V normalized RPPA signal [1]: 0.834
- SOD2.R.V normalized RPPA signal [1]: 1.108 and 1.226 and 0.894 and 1.076
- SOX7.R.V normalized RPPA signal [1]: 1.078 and 1.212 and 1.083 and 1.124
- STING.R.V normalized RPPA signal [1]: 0.848 and 1.021
